Measured values from patent US6525063B2, “Antitumour 1,5-diazaanthraquinones” (Universidad Complutense de Madrid, priority 1998, dated 2003).

What was measured:
[1] = test system: HT-29 (ATCC HTB-38) cells; test: in vitro cytotoxic assay, HT-29 cells; type: cell-based; details: 72 h; HT-29 human colon carcinoma monolayer; three days of incubation; Crystal Violet staining; approximate IC50
Procedure: (§1) Cells were maintained in logarithmic phase of growth in Eagle's Minimum Essential Medium, with Earle's Balanced Salts, with 2.0 mM L-glutamine, with non-essential amino acids, without sodium bicarbonate (EMEM/neaa); supplemented with 10% Fetal Calf Serum (FCS), 10^−2 M sodium bicarbonate and 0,1 g/l penicillin-G+streptomycin sulfate.
(§2) A screening procedure has been carried out to determine and compare the antitumour activity of these compounds, using an adapted form of the method described by Raymond J. Bergeron, Paul F. Cavanaugh Jr., Steven J. Kline, Robert G. Hughes, Jr., Gary T. Elliot and Carl W. Porter. Antineoplastic and antiherpetic activity of spermidine catecholamide iron chelators. Biochem. Bioph. Res. Comm. 1984, 121, 848-854. The antitumour cells employed were P388 (ATCC CCL-46) (suspension culture of a lymphoid neoplasm from DBA/2 mouse), A549 (ATCC CCL-185) (monolayer culture of a human lung carcinoma), HT-29 (ATCC HTB-38) (monolayer culture of a human colon carcinoma) and SK-MEL-28 (ATCC HTB-72) (monolayer culture of a human melanoma).
(§3) A549 (ATCC CCL-185), HT-29 (ATCC HTB-38) and SK-MEL-28 (ATCC HTB-72) cells were seeded into 16 mm wells at 2×10^4 cells per well in 1 ml aliquots of MEM 10FCS containing the indicated concentration of drug. A separate set of cultures without drug was seeded as control growth to ensure that cells remained in exponential phase of growth. All determinations were carried out in duplicate. After three days of incubation at 37° C., 10% CO2 in a 98% humid atmosphere, the wells were stained with 0.1% Crystal Violet. An approximately IC50 was determined by comparing the growth in wells with drug to the growth in wells control.
(§4) The results of the in vitro cytotoxic assays for these compounds (4a), (4b), (4c), (4d), (11a), (12a), (13a), (13b), and (14a) with the cellular lines P388 (ATCC CCL-46), A549 (ATCC CCL-185), HT-29 (ATCC HTB-38) and SK-MEL-28 (ATCC HTB-72) are shown in the following Table.

[2] = test system: P388 (ATCC CCL-46) cells; test: in vitro cytotoxic assay, P388 cells; type: cell-based; details: 72 h; P388 lymphoid neoplasm from DBA/2 mouse, suspension culture; three days of incubation; approximate IC50 by growth vs control
Procedure: as §1, §2
P388 (ATCC CCL-46) cells were seeded into 16 mm wells at 1×10^4 cells per well in 1 ml aliquots of MEM 5FCS containing the indicated concentration of drug. A separate set of cultures without drug was seeded as control growth to ensure that cells remained in exponential phase of growth. All determinations were carried out in duplicate.
as §4

[3] = test system: A549 (ATCC CCL-185) cells; test: in vitro cytotoxic assay, A549 cells; type: cell-based; details: 72 h; A549 human lung carcinoma monolayer; three days of incubation; Crystal Violet staining; approximate IC50
Procedure: as §1, §2, §3, §4

[4] = test system: SK-MEL-28 (ATCC HTB-72) cells; test: in vitro cytotoxic assay, SK-MEL-28 cells; type: cell-based; details: 72 h; SK-MEL-28 human melanoma monolayer; three days of incubation; Crystal Violet staining; approximate IC50
Procedure: as §1, §2, §3, §4

SMILES	IC50 [1] [nM]	IC50 [2] [nM]	melting point [°C]	IC50 [3] [nM]	IC50 [4] [nM]
CCc1cnc2c(c1)C(=O)c1ncc(CC)cc1C2=O [(4a), 3,7-Diethyl-1,5-diazaanthraquinone]	190	450	218 to 220	50	50
Cc1cnc2c(c1)C(=O)c1ncc(C)cc1C2=O [(4b), 3,7-Dimethyl-1,5-diazaanthraquinone]	510	7350	> 300	50	110
Cc1ccnc2c1C(=O)c1nccc(C)c1C2=O [(4c), 4,8-Dimethyl-1,5-diazaanthraquinone]	1050	4200	253 to 254	500	1050
CCc1c(C)cnc2c1C(=O)c1ncc(C)c(CC)c1C2=O [(4d), 4,8-Diethyl-3,7-dimethyl-1,5-diazaanthraquinone]	3400	3400	180 to 182	3400	3400
Cc1cnc2c(c1)C(=O)c1nccc(Cl)c1C2=O [(11a), 8-Chloro-3-methyl-1,5-diazaanthraquinone]	40	150	208 to 210	30	30
CC1C=CN(N(C)C)C2=C1C(=O)c1nccc(Cl)c1C2=O (stereo not shown) [(12a), 8-Chloro-1-dimethylamino-4-methyl-1,4-dihydro-1,5-diazaanthraquinone]	1650	3290	–	330	330
Cc1ccnc2c1C(=O)c1nccc(Cl)c1C2=O [(13a), 4-Chloro-8-methyl-1,5-diazaanthraquinone]	1930	3870	> 300	190	190
O=C1c2nccc(-c3ccccc3[N+](=O)[O-])c2C(=O)c2nccc(Cl)c21 [(13b), 4-Chloro-8-(o-nitrophenyl)-1,5-diazaanthraquinone]	270	270	–	30	70
Cc1ccnc2c1C(=O)c1nccc(N(C)C)c1C2=O [(14a), 4-Dimethylamino-8-methyl-1,5-diazaanthraquinone]	940	9360	97 to 100	370	370
